Measurements as given in US20240327359A1, “3-ISOXAZOLIDINONE COMPOUND, PREPARATION METHOD, HERBICIDAL COMPOSITION AND APPLICATION THEREOF” (QINGDAO KINGAGROOT CHEMICAL COMPOUND CO., LTD., priority 2021, published 2024).
Read-outs that look alike come from different tables or passages of the source.

System: weeds
Experiment: Activity test of the compositions, soil sealing treatment
Assay type: in vivo
Settings: for pest or weed control at 6 g/ha: B 0.4 g a.i./mu; for pest or weed control at 12 g/ha: B 0.8 g a.i./mu
Description: The desired active ingredient B was purchased from a reagent company or synthesized by a known method. The technical materials were all dissolved in acetone and diluted with an aqueous solution containing 0.10% emulsifier Tween-80 which were to be used immediately after dilution.
Weeds are cultivated in a controllable sunlight greenhouse at 20 to 30° C., in natural light, and with relative humidity of 57% to 72%. […] The test soil was filled quantitatively to ¾ of the pots and then watered from the bottom of the pots to completely wet the soil to saturation. The test weed seeds were accelerated to just germinate, and then evenly and quantitatively sowed on the surface, then covered with 0.5-1 cm soil according to the seed size, and ready for use 72 hours after sowing.
Each treatment was repeated 4 times. Four pots with 20 weed seeds per pot were treated each time.
The well-sowed test materials were evenly placed on a platform with an area of 0.5 m^2, and solution of agents was sprayed on the soil by the 3WP-2000-type walking spray tower at a dosage of 450 kg/ha and at a spray pressure of 0.3 MPa. After all the solution was sprayed, the valve was closed. After 30 seconds, the door of the spray tower was opened, and the nutritional bowl was taken out. Then the valve was opened, and the spray tube was cleaned by spraying 50 ml of water.
A method for investigating absolute numbers was employed. Whole seedlings of survival weeds were cut off with a blade along the soil surface, and the fresh weight of the weeds was weighed with an analytical balance. For dead weeds, the fresh weight thereof was zero.
The investigation was performed 21 days after the treatment for only once in total.

[1] = Echinochloa crus-galli, Echinochloa crusgalli, soil (S), B 0.5 g a.i./mu, read-out: Control effect (%) of B applied alone (B)
[2] = Echinochloa crus-galli, Echinochloa crusgalli, soil (S), B 1 g a.i./mu, read-out: Control effect (%) of B applied alone (B)
[3] = Echinochloa crus-galli, Echinochloa crusgalli, soil (S), B 2 g a.i./mu, read-out: Control effect (%) of B applied alone (B)
[4] = Echinochloa crus-galli, Echinochloa crusgalli, soil (S), read-out: Control effect (%) of B applied alone (B)
[5] = Lolium multiflorum, soil (S), B 20 g a.i./mu, read-out: Control effect (%) of B applied alone (B)
[6] = Lolium multiflorum, soil (S), B 40 g a.i./mu, read-out: Control effect (%) of B applied alone (B)
[7] = Lolium multiflorum, soil, read-out: Control effect (%) of B applied alone (B)
[8] = Echinochloa crus-galli, soil, read-out: Control effect (%) of B applied alone (B)
[9] = Cyperus difformis, soil (S), B 0.5 g a.i./mu, read-out: Control effect (%) of B applied alone (B)
[10] = Echinochloa crusgalli, soil (S), B 2 g a.i./mu
[11] = Echinochloa crusgalli, soil (S), B 4 g a.i./mu
[12] = Echinochloa crus-galli, Echinochloa crusgalli, soil (S), B 16 g a.i./mu, read-out: Control effect (%) of B applied alone (B)
[13] = Echinochloa crus-galli, Echinochloa crusgalli, soil (S), B 32 g a.i./mu, read-out: Control effect (%) of B applied alone (B)
[14] = Lolium multiflorum, soil (S), B 16 g a.i./mu, read-out: Control effect (%) of B applied alone (B)
[15] = Lolium multiflorum, soil (S), B 32 g a.i./mu, read-out: Control effect (%) of B applied alone (B)
[16] = Echinochloa crus-galli, Echinochloa crusgalli, soil (S), B 6 g a.i./mu, read-out: Control effect (%) of B applied alone (B)
[17] = Echinochloa crus-galli, Echinochloa crusgalli, soil (S), B 12 g a.i./mu, read-out: Control effect (%) of B applied alone (B)
[18] = Lolium multiflorum, soil (S), read-out: Control effect (%) of B applied alone (B)

COC(=O)[C@@H](C)O/N=C/c1cc(-n2c(=O)cc(C(F)(F)F)n(C)c2=O)c(F)cc1Cl
pest or weed control at 7.5 g/ha [1]: 31.5%
pest or weed control at 15 g/ha [2]: 42.3%

COC(=O)C12ON=C(c3cc(-n4c(=O)cc(C(F)(F)F)n(C)c4=O)c(F)cc3Cl)C1CCC2C (stereo not drawn)
pest or weed control at 15 g/ha [2]: 40.2%
pest or weed control at 30 g/ha [3]: 53.1%

Cc1ccccc1CO[C@@H]1C[C@@]2(C(C)C)CC[C@]1(C)O2 (racemic) [cinmethylin]
pest or weed control at 6 g/ha [4]: 26.4%
pest or weed control at 12 g/ha [4]: 38.6%

CC(C)CCCCCOC(=O)COc1ccc(Cl)cc1Cl [2,4-D isooctyl ester]
Control effect (%) of B applied alone (B) (Veronica didyma, soil (S), B 6 g a.i./mu): 33.6%
Control effect (%) of B applied alone (B) (Veronica didyma, soil (S), B 12 g a.i./mu): 42.5%

CCOCN(C(=O)CCl)c1c(C)cccc1CC [acetochlor]
pest or weed control at 180 g/ha (Lolium multiflorum, soil (S), B 12 g a.i./mu, read-out: Control effect (%) of B applied alone (B)): 36.5%
pest or weed control at 360 g/ha (Lolium multiflorum, soil (S), B 24 g a.i./mu, read-out: Control effect (%) of B applied alone (B)): 45.7%

Nc1c([N+](=O)[O-])ccc(Oc2ccccc2)c1Cl [aclonifen]
pest or weed control at 300 g/ha [5]: 31.6%
pest or weed control at 600 g/ha [6]: 52.1%

CCNc1nc(NC(C)C)nc(SC)n1 [ametryne]
pest or weed control at 300 g/ha [7]: 18.1%
pest or weed control at 600 g/ha [7]: 31.6%

COP(=S)(OC)SCC(=O)N(c1ccc(Cl)cc1)C(C)(C)C [anilofos]
pest or weed control at 30 g/ha [8]: 23.1%
pest or weed control at 60 g/ha [8]: 32.6%

CCNc1nc(Cl)nc(NC(C)C)n1 [atrazine]
pest or weed control at 300 g/ha [5]: 18.9%
pest or weed control at 600 g/ha [6]: 36.6%

CCC(Oc1ccc(F)c(C(F)(F)F)c1)C(=O)NCc1ccccc1 (stereo not drawn) [beflubutamid]
Control effect (%) of B applied alone (B) (Veronica didyma, soil (S), B 1 g a.i./mu): 42.6%
Control effect (%) of B applied alone (B) (Veronica didyma, soil (S), B 2 g a.i./mu): 57.9%

COC(=O)c1ccccc1CS(=O)(=O)NC(=O)Nc1nc(OC)cc(OC)n1 [bensulfuron-methyl]
pest or weed control at 7.5 g/ha [9]: 42.6%
pest or weed control at 15 g/ha (Cyperus difformis, soil (S), B 1 g a.i./mu, read-out: Control effect (%) of B applied alone (B)): 55.8%

CS(=O)(=O)c1ccc(C(=O)C2=C(Sc3ccccc3)C3CCC(C3)C2=O)c(Cl)c1 (stereo not drawn) [benzobicyclon]
Control effect (%) of B applied alone (B) [10]: 22.6%
Control effect (%) of B applied alone (B) [11]: 42.8%

CC(C)(NC(=O)C(Br)C(C)(C)C)c1ccccc1 (stereo not drawn) [bromobutide]
pest or weed control at 240 g/ha [12]: 37.3%
pest or weed control at 480 g/ha [13]: 53.6%

CCCCOCN(C(=O)CCl)c1c(CC)cccc1CC [butachlor]
pest or weed control at 240 g/ha [14]: 28.8%
pest or weed control at 480 g/ha [15]: 46.4%

CCC(C)Nc1c([N+](=O)[O-])cc(C(C)(C)C)cc1[N+](=O)[O-] (stereo not drawn) [butralin]
pest or weed control at 240 g/ha [7]: 19.5%
pest or weed control at 480 g/ha [7]: 35.8%

Cc1ccc(NC(=O)N(C)C)cc1Cl [chlorotoluron]
pest or weed control at 225 g/ha (Alopecurus japonicus, soil (S), B 15 g a.i./mu, read-out: Control effect (%) of B applied alone (B)): 34.2%
pest or weed control at 450 g/ha (Alopecurus japonicus, soil (S), B 30 g a.i./mu, read-out: Control effect (%) of B applied alone (B)): 58.3%

O=C(Nc1ccc(F)cc1F)c1cccnc1Oc1cccc(C(F)(F)F)c1 [diflufenican]
pest or weed control at 15 g/ha (Lolium multiflorum, soil (S), B 1 g a.i./mu, read-out: Control effect (%) of B applied alone (B)): 37.1%
pest or weed control at 30 g/ha (Lolium multiflorum, soil (S), B 2 g a.i./mu, read-out: Control effect (%) of B applied alone (B)): 52.4%

COC[C@H](C)N(C(=O)CCl)c1c(C)csc1C [dimethenamid-P]
Control effect (%) of B applied alone (B) [11]: 34.2%
Control effect (%) of B applied alone (B) (Echinochloa crusgalli, soil (S), B 8 g a.i./mu): 47.5%

COCC(C)N(C(=O)CCl)c1c(C)csc1C (stereo not drawn) [dimethenamid]
pest or weed control at 90 g/ha [16]: 31.5%
pest or weed control at 180 g/ha [17]: 43.7%

CSC(=O)c1c(C(F)F)nc(C(F)(F)F)c(C(=O)SC)c1CC(C)C [dithiopyr]
pest or weed control at 60 g/ha (Echinochloa crus-galli, Echinochloa crusgalli, soil (S), B 4 g a.i./mu, read-out: Control effect (%) of B applied alone (B)): 40.1%
pest or weed control at 120 g/ha (Echinochloa crus-galli, Echinochloa crusgalli, soil (S), B 8 g a.i./mu, read-out: Control effect (%) of B applied alone (B)): 53.2%

CN(C)C(=O)Nc1ccc(Cl)c(Cl)c1 [diuron]
pest or weed control at 600 g/ha [7]: 39.4%
pest or weed control at 1200 g/ha [7]: 65.3%

CCOC(=O)COc1ncccc1Oc1cc(-n2c(=O)cc(C(F)(F)F)n(C)c2=O)c(F)cc1Cl [epyrifenacil]
Control effect (%) of B applied alone (B) (Amaranthus retroflexus, soil (S), B 0.5 g a.i./mu): 36.9%
Control effect (%) of B applied alone (B) (Amaranthus retroflexus, soil (S), B 1 g a.i./mu): 47.1%

CCOc1ccccc1OS(=O)(=O)NC(=O)Nc1nc(OC)cc(OC)n1 [ethoxysulfuron]
pest or weed control at 3.75 g/ha (Cyperus difformis, soil (S), B 0.25 g a.i./mu, read-out: Control effect (%) of B applied alone (B)): 44.6%
pest or weed control at 7.5 g/ha [9]: 58.4%

COc1ccc(-n2c(=O)c(C(=O)C3C(=O)CCCC3=O)nc3c(Cl)cccc32)cc1 [fenquinotrione]
Control effect (%) of B applied alone (B) (Lolium multiflorum, soil (S), B 1.5 g a.i./mu): 28.6%
Control effect (%) of B applied alone (B) (Lolium multiflorum, soil (S), B 3 g a.i./mu): 44.1%

CCN(C(=O)n1nnn(-c2ccccc2Cl)c1=O)C1CCCCC1 [fentrazamide]
pest or weed control at 240 g/ha [12]: 32.5%
pest or weed control at 480 g/ha [13]: 50.8%

CC(C)N(C(=O)COc1nnc(C(F)(F)F)s1)c1ccc(F)cc1 [flufenacet]
pest or weed control at 90 g/ha [16]: 29.8%
pest or weed control at 180 g/ha [17]: 37.5%

C#CCN1C(=O)COc2cc(F)c(N3C(=O)C4=C(CCCC4)C3=O)cc21 [flumioxazin]
pest or weed control at 7.5 g/ha [1]: 32.8%
pest or weed control at 15 g/ha [2]: 45.1%

O=C1C(Cl)C(CCl)CN1c1cccc(C(F)(F)F)c1 (stereo not drawn) [flurochloridone]
pest or weed control at 60 g/ha (Veronica polita, Veronica didyma, soil (S), B 4 g a.i./mu, read-out: Control effect (%) of B applied alone (B)): 45.1%
pest or weed control at 120 g/ha (Veronica polita, Veronica didyma, soil (S), B 8 g a.i./mu, read-out: Control effect (%) of B applied alone (B)): 60.8%

COc1cc(OC)nc(NC(=O)NS(=O)(=O)c2c(C(=O)O)c(Cl)nn2C)n1 [halosulfuron]
pest or weed control at 7.5 g/ha (Veronica polita, Veronica didyma, soil (S), B 0.5 g a.i./mu, read-out: Control effect (%) of B applied alone (B)): 34.8%
pest or weed control at 15 g/ha (Veronica polita, Veronica didyma, soil (S), B 1 g a.i./mu, read-out: Control effect (%) of B applied alone (B)): 54.6%

COCc1cnc(C2=NC(C)(C(C)C)C(=O)N2)c(C(=O)O)c1 (stereo not drawn) [imazamox]
pest or weed control at 6 g/ha [18]: 25.4%
pest or weed control at 12 g/ha [18]: 42.7%

CCc1cnc(C2=NC(C)(C(C)C)C(=O)N2)c(C(=O)O)c1 (stereo not drawn) [imazethapyr]
pest or weed control at 15 g/ha [2]: 33.4%
pest or weed control at 30 g/ha [3]: 43.8%

CC(C)N(C(=O)n1cnn(-c2ccc(Cl)cc2Cl)c1=O)c1ccc(F)cc1F [ipfencarbazone]
Control effect (%) of B applied alone (B) [10]: 41.5%
Control effect (%) of B applied alone (B) [11]: 57.6%

CC(C)c1ccc(NC(=O)N(C)C)cc1 [isoproturon]
pest or weed control at 120 g/ha (Alopecurus japonicus, soil (S), B 8 g a.i./mu, read-out: Control effect (%) of B applied alone (B)): 41.5%
pest or weed control at 240 g/ha (Alopecurus japonicus, soil (S), B 16 g a.i./mu, read-out: Control effect (%) of B applied alone (B)): 53.6%

CS(=O)(=O)c1cc(C(F)(F)F)ccc1C(=O)c1cnoc1C1CC1 [isoxaflutole]
pest or weed control at 15 g/ha [2]: 26.4%
pest or weed control at 30 g/ha [3]: 44.3%

CN(C(=O)COc1nc2ccccc2s1)c1ccccc1 [mefenacet]
pest or weed control at 240 g/ha [14]: 18.5%
pest or weed control at 480 g/ha [15]: 38.3%

COc1cc(OC)nc(NC(=O)NS(=O)(=O)c2c(C3=NOCC(C)O3)c(Cl)nn2C)n1 (stereo not drawn) [metazosulfuron]
Control effect (%) of B applied alone (B) (Echinochloa crusgalli, soil (S), B 0.75 g a.i./mu): 32.4%
Control effect (%) of B applied alone (B) (Echinochloa crusgalli, soil (S), B 1.5 g a.i./mu): 41.6%
